Biological target: T1, Human TREX1 enzyme (amino acids 1-242) (Homo sapiens, UniProt Q9NSU2)
T1 construct: Human TREX1 enzyme (amino acids 1-242)
T1 sequence (Q9NSU2 1-242): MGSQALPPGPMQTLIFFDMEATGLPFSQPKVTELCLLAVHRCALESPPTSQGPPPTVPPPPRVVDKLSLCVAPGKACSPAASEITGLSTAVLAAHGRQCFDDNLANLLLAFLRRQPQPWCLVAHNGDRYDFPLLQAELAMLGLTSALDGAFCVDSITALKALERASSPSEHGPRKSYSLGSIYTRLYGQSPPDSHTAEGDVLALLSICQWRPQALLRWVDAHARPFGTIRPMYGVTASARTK
Experiment: Human TREX1 enzymatic assay with dsDNA native oligonucleotide (Picogreen fluorescence)
Format: biochemical
Details: 2 mM dithiothreitol in assay buffer; 50 nM dsDNA oligonucleotide; 30 min preincubation at 25° C.; read-out: TREX1/Human + DTT IC50 AVG
In short: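 Remaining dsDNA quantified by Picogreen fluorescence after EDTA quench, with no-enzyme and DMSO wells as controls. Reactions used 50 nM annealed oligonucleotide for 5–15 min at 25 °C, after a 30 min compound–enzyme preincubation (0.8–0.16 nM TREX1; 2% DMSO; pH 7.7 Tris, 5 mM MgCl2).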

| IC50 | SMILES |
| --- | --- |
| 1 to 10 µM | COc1cc(-c2nc3ccc(-c4ccnn4C)cc3n2C2(C)COC2)c(F)c(O)c1O [Example 266, 3-fluoro-6-methoxy-4-(6-(1-methyl-1H-pyrazol-5-yl)-1-(3-methyloxetan-3-yl)-1H-benzo[d]imidazol-2-yl)benzene-1,2-diol] |
| > 100 µM | COc1cc(-c2nc3cc(N4CCC(c5ccccc5)CC4)ccc3[nH]2)cc(O)c1O [Example 49, 3-methoxy-5-(5-(4-phenylpiperidin-1-yl)-1H-benzo[d]imidazol-2-yl)benzene-1,2-diol] |
| 10 to 100 µM | COc1c(O)c(O)c(C)c(-c2nc3ccccc3[nH]2)c1F [Example 64, 4-(1H-benzo[d]imidazol-2-yl)-5-fluoro-6-methoxy-3-methylbenzene-1,2-diol] |
| 1 to 10 µM | COc1cc(-c2nc3ccc(N4CCN(C(=O)c5ccccc5)CC4)cc3n2C2CCOC2)cc(O)c1O (centres unmarked) [Example 106, (4-(2-(3,4-dihydroxy-5-methoxyphenyl)-1-(tetrahydrofuran-3-yl)-1H-benzo[d]imidazol-6-yl)piperazin-1-yl)(phenyl)methanone] |
| 10 to 100 µM | COc1cc(-c2nc3nc(N4CCC4)ccc3n2C2CCOC2)cc(O)c1O (centres unmarked) [Example 292, 5-(5-(azetidin-1-yl)-1-(tetrahydrofuran-3-yl)-1H-imidazo[4,5-b]pyridin-2-yl)-3-methoxybenzene-1,2-diol] |
| > 100 µM | COc1cc(-c2nc3nc(N4CCOCC4)ccc3n2C2CCOC2)cc(O)c1O (centres unmarked) [Example 287, 3-methoxy-5-(5-morpholino-1-(tetrahydrofuran-3-yl)-1H-imidazo[4,5-b]pyridin-2-yl)benzene-1,2-diol] |
| > 100 µM | COc1cc(-c2nc3ccc(N4CCN(C)CC4)cc3n2C)cc(O)c1O [Example 38, 3-methoxy-5-(1-methyl-6-(4-methylpiperazin-1-yl)-1H-benzo[d]imidazol-2-yl)benzene-1,2-diol] |
| 0.1 to 1 µM | CNC(=O)c1cccc2c1nc(-c1cc(OC)c(O)c(O)c1F)n2C1(C)COC1 [Example 214, 2-(2-fluoro-3,4-dihydroxy-5-methoxyphenyl)-N-methyl-1-(3-methyloxetan-3-yl)-1H-1,3-benzodiazole-4-carboxamide] |
| ≤ 0.1 µM | CCNC(=O)c1ccc2nc(-c3cc(OC)c(O)c(O)c3F)n(C3(C)COC3)c2c1 [Example 262, N-ethyl-2-(2-fluoro-3,4-dihydroxy-5-methoxyphenyl)-1-(3-methyloxetan-3-yl)-1H-benzo[d]imidazole-6-carboxamide] |
| 10 to 100 µM | COc1cc(-c2nc3ccc(S(=O)(=O)Nc4ccccc4)cc3n2C(CO)CCl)cc(O)c1O (centres unmarked) [Example 42, 1-(1-chloro-3-hydroxypropan-2-yl)-2-(3,4-dihydroxy-5-methoxyphenyl)-N-phenyl-1H-benzo[d]imidazole-6-sulfonamide] |
| 10 to 100 µM | COc1cc(-c2nc3ccccc3n2C2COC2)cc(O)c1O [Example 11, 3-methoxy-5-(1-(oxetan-3-yl)-1H-benzo[d]imidazol-2-yl)benzene-1,2-diol] |
| 0.1 to 1 µM | COc1cc(-c2nc3ccc(Nc4ccccc4)cc3n2C2(C)COC2)c(F)c(O)c1O [Example 318, 3-fluoro-6-methoxy-4-(1-(3-methyloxetan-3-yl)-6-(phenylamino)-1H-benzo[d]imidazol-2-yl)benzene-1,2-diol] |
| 10 to 100 µM | COc1cc(-c2nc3ccccc3n2C2(C)COC2)c(C#N)c(O)c1O [Example 216, 2,3-dihydroxy-4-methoxy-6-[1-(3-methyloxetan-3-yl)-1H-1,3-benzodiazol-2-yl]benzonitrile] |
| > 100 µM | COCCn1c(-c2cc(O)c(O)c(OC)c2)nc2ccccc21 [Example 15, 3-methoxy-5-(1-(2-methoxyethyl)-1H-benzo[d]imidazol-2-yl)benzene-1,2-diol] |
| ≤ 0.1 µM | COc1cc(-c2nc3ccc(C(=O)NC4CC4)cc3n2C2(C)COC2)c(F)c(O)c1O [Example 253, N-cyclopropyl-2-(2-fluoro-3,4-dihydroxy-5-methoxyphenyl)-1-(3-methyloxetan-3-yl)-1H-benzo[d]imidazole-6-carboxamide] |

The next lines start with the molecule.

| SMILES | IC50 |
| --- | --- |
| CS(=O)(=O)N1CCN(c2ccc3[nH]c(-c4ccc(C(=O)O)c(O)c4)nc3c2)CC1 [Example 117, 2-hydroxy-4-(5-(4-(methylsulfonyl)piperazin-1-yl)-1H-benzo[d]imidazol-2-yl)benzoic acid] | 10 to 100 µM |
| COc1cc(-c2nc3cc(N4CCN(C(=O)c5ccccc5C(=O)O)CC4)ccc3[nH]2)cc(O)c1O [Example 155, 2-(4-(2-(3,4-dihydroxy-5-methoxyphenyl)-1H-benzo[d]imidazol-5-yl)piperazine-1-carbonyl)benzoic acid] | 10 to 100 µM |
| COc1cc(-c2nc3cc(N4CCN(C)CC4)ccc3n2C)cc(O)c1O [Example 35, 3-methoxy-5-(1-methyl-5-(4-methylpiperazin-1-yl)-1H-benzo[d]imidazol-2-yl)benzene-1,2-diol] | > 100 µM |
| COc1cc(-c2nc3ccccc3[nH]2)c(C)c(O)c1O [Example 17, 4-(1H-benzo[d]imidazol-2-yl)-6-methoxy-3-methylbenzene-1,2-diol] | > 100 µM |
| CCc1cc2nc(-c3cc(OC)c(O)c(O)c3F)n(C3(C)COC3)c2cn1 [Example 218, 4-[6-ethyl-3-(3-methyloxetan-3-yl)-3H-imidazo[4,5-c]pyridin-2-yl]-3-fluoro-6-methoxybenzene-1,2-diol] | ≤ 0.1 µM |
| COc1cc(-c2nc3cc(C(N)=O)ncc3n2C2(C)COC2)c(F)c(O)c1O [Example 219, 2-(2-fluoro-3,4-dihydroxy-5-methoxyphenyl)-3-(3-methyloxetan-3-yl)-3H-imidazo[4,5-c]pyridine-6-carboxamide] | 0.1 to 1 µM |
| COc1cc(-c2nc3ccncc3s2)cc(O)c1O [Example 77, 3-methoxy-5-(thiazolo[5,4-c]pyridin-2-yl)benzene-1,2-diol] | 10 to 100 µM |
| COc1cc(-c2nc3ccc(N4CCC4)cc3n2C2COC2)c(F)c(O)c1O [Example 288, 4-(6-(azetidin-1-yl)-1-(oxetan-3-yl)-1H-benzo[d]imidazol-2-yl)-3-fluoro-6-methoxybenzene-1,2-diol] | 1 to 10 µM |
| COc1cc(-c2nc3ccc(-c4ccccn4)cc3n2C2(C)COC2)c(F)c(O)c1O [Example 182, 3-fluoro-6-methoxy-4-[1-(3-methyloxetan-3-yl)-6-(pyridin-2-yl)-1H-1,3-benzodiazol-2-yl]benzene-1,2-diol] | 0.1 to 1 µM |
| COc1cc(-c2nc3ccccc3[nH]2)cc(O)c1O [Example 9, 5-(1H-benzo[d]imidazol-2-yl)-3-methoxybenzene-1,2-diol] | > 100 µM |
| COc1cc(-c2nc3nc(N4CCOCC4)ccc3[nH]2)cc(O)c1O [Example 94, 3-methoxy-5-(5-morpholino-1H-imidazo[4,5-b]pyridin-2-yl)benzene-1,2-diol] | 10 to 100 µM |
| COc1cc(-c2nc3cc(N4CCCC4)ccc3[nH]2)cc(O)c1O [Example 137, 3-methoxy-5-(5-(pyrrolidin-1-yl)-1H-benzo[d]imidazol-2-yl)benzene-1,2-diol] | 1 to 10 µM |
| COc1cc(-c2nc3cc(N4CCC4)ccc3[nH]2)cc(C(=O)O)c1O [Example 6, 5-[6-(azetidin-1-yl)-1H-benzimidazol-2-yl]-2-hydroxy-3-methoxybenzoic acid] | 1 to 10 µM |
| COc1cc(-c2nc3cc(N4CCN(C(C)C)CC4)ccc3[nH]2)cc(O)c1O [Example 72, 5-(5-(4-isopropylpiperazin-1-yl)-1H-benzo[d]imidazol-2-yl)-3-methoxybenzene-1,2-diol] | 10 to 100 µM |

Source: patent publication US20230234943A1, “TREX1 INHIBITORS AND USES THEREOF” (Tempest Therapeutics, Inc., priority 2020, published 2023)
